Measurements reported in patent publication US20130004477A1, “Methods for Treating Inflammation and Oxidative Stress Related Diseases” (priority 2009, published 2013).
Like-named read-outs stand apart in the source and are kept apart here.

Key:
[1] = system: healthy volunteers; details: Phase 1 single-dose; cited from earlier work
[2] = system: Min6 cells; details: 400 μM SCN^−; GO 10 mU/ml, MPO 1 U/ml
Experimental: (§1) (the number of independent trials is indicated in parentheses).
(§2) Four types of cell, Calu-3, Min6 (58), Neuro-2A, and HAEC (Invitrogen Inc.) were plated in 48-well culture plates (3.5×10^4 to 2×10^5 per well). Twenty-four to forty-eight hours later, cells were washed with Earl's balanced salt solution (EBSS) before subsequent studies. EBSS contained: NaCl (116 mM), glucose (5.5 mM), KCl (5.4 mM), CaCl2 (1.8 mM), MgSO4 (2.2 mM), NaH2PO4 (1 mM), and NaHCO3 (26 mM); pH 7.0. […] LPO (1 U/ml) and NaSCN (100 or 400 μM) were added to protect cells from injuries caused by H2O2. For the MPO studies, cells were first incubated for one hour in EBSS containing MPO (1 U/ml). The MPO reaction was initiated by adding 10 mU/ml GO to generate H2O2, and cells were maintained in a 37° C. incubator (5% CO2) for three additional hours. […] After incubation, cells were trypsinized, pelleted, and resuspended in a phosphate buffer solution (PBS), which contains NaCl (137 mM), KCl (2.7 mM), Na2HPO4 (4.3 mM) and KH2PO4 (1.4 mM); pH 7.3. Non-viable cells were identified by staining with 0.2% Trypan blue (Invitrogen, Inc.). Both stained and unstained cells were counted with a hemocytometer in double blind experiments.

[3] = system: Neuro-2A cells; details: GO 10 mU/ml, MPO 1 U/ml
Experimental: as §1, §2

[4] = system: human aortic endothelial cells (HAEC); details: 400 μM SCN^−; GO 5 mU/ml, MPO 1 U/ml
Experimental: as §1, §2

[5] = molecular target: MPO (Homo sapiens, UniProt P05164); details: 1 U/ml MPO, 100 mM Cl^−, 5 minutes
Experimental: Reaction mixtures contained MPO (1 U/ml), NaCl (100 mM), NaSCN (0-400 μM), and sodium phosphate (100 mM, pH 7.0). Reactions were initiated by adding 50 μM H2O2 to the mixture, and stopped 5 minutes later by adding 1 μM catalase to decompose remaining H2O2 to H2O and O2. Blank reactions contained no H2O2. The concentrations of OCl^− and OSCN^−were determined using the taurine chloramine assay. OCl^− and OSCN^− react with taurine to form taurine chloramine. The latter oxidizes yellow 5-thio-2-nitrobenzoic acid (ε412=14,100 M^−1 cm^−1) to colorless 5,5′-dithiobis-2-nitrobenzoic acid. The drop in absorbance at 412 nm (after subtracting the blank) reflects the total concentration of OCl^− plus OSCN^− produced. […] Methionine was added immediately after the addition of catalase but 5 minutes before the taurine chloramine assay. This five minute interval allowed methionine to reduce OCl^−. Unless specified otherwise, all reagents were purchased from Sigma-Aldrich.

[6] = system: Calu-3 cells; assay: Cell viability assay: H2O2 cytotoxicity in Calu-3 cells; assay type: cell-based, human; details: SCN^− alone, GO 20 mU/ml
Experimental: as §1, §2

[7] = system: CF mice
Experimental: Mouse pups, weaned at day ˜28, had access to drinking water and solid mouse food. […] All pictures were taken at the same magnification (20× objective). […] In panels C and F, the green, yellow and black arrows point to a villus, a goblet cell and a mucus plug, respectively.
The body length (A) and weight (B) (mean±s.e.m.) of CF and heterozygous mice were determined 30, 60, and 90 days after weaning
FIGS. 7B-G, show standard Alcian Blue-stained (5 μm-thick) sections of large (FIG. 7B-D) and small (FIG. 7E-G) intestines (Alcian Blue specifically stains mucin; http://www.protocol-online.org).
Mouse pups, weaned at day ˜28, had access to drinking water and solid mouse food. […] In FIGS. 7C and 7F, the green, yellow and black arrows point to a villus, a goblet cell and a mucus plug, respectively.
The body length (A) and weight (B) (mean±s.e.m.) of CF and heterozygous mice were determined 30, 60, and 90 days after.

[8] = system: CF piglets
[9] = non-enzymatic reaction; cited from earlier work
[10] = molecular target: T1, CFTR (Homo sapiens, UniProt P13569, G551D); details: CF patients with at least one copy of the G551D mutation; Phase II; cited from earlier work
T1 construct: endogenous in cells; host or cells: CF patients (nasal epithelium, sweat glands, lungs)

[11] = system: CF patients; details: high doses; cited from earlier work
[12] = 1 mM thiocyanate in drinking water, 30, 60, 90 days after weaning
[13] = single dose of thiocyanate (1 mM)

Chain of MPO (P05164 49-745, species assumed): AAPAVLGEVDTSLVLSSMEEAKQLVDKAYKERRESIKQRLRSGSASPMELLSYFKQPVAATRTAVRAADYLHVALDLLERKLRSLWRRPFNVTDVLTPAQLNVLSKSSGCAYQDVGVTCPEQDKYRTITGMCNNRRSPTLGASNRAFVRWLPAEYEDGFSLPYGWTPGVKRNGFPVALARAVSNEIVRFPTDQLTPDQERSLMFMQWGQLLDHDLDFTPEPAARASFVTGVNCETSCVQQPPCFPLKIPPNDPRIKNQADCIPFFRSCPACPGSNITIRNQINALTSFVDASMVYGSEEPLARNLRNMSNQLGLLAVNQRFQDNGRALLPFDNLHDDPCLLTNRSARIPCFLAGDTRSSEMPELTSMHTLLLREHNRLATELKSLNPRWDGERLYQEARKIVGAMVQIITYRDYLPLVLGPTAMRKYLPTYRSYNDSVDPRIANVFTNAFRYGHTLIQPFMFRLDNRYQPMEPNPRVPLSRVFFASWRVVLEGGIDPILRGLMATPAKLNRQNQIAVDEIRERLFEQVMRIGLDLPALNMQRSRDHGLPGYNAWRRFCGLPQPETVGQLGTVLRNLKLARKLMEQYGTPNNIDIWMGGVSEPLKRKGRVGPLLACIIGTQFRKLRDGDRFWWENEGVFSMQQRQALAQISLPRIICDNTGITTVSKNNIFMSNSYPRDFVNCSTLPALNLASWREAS
T1 sequence (P13569 whole entry G551D): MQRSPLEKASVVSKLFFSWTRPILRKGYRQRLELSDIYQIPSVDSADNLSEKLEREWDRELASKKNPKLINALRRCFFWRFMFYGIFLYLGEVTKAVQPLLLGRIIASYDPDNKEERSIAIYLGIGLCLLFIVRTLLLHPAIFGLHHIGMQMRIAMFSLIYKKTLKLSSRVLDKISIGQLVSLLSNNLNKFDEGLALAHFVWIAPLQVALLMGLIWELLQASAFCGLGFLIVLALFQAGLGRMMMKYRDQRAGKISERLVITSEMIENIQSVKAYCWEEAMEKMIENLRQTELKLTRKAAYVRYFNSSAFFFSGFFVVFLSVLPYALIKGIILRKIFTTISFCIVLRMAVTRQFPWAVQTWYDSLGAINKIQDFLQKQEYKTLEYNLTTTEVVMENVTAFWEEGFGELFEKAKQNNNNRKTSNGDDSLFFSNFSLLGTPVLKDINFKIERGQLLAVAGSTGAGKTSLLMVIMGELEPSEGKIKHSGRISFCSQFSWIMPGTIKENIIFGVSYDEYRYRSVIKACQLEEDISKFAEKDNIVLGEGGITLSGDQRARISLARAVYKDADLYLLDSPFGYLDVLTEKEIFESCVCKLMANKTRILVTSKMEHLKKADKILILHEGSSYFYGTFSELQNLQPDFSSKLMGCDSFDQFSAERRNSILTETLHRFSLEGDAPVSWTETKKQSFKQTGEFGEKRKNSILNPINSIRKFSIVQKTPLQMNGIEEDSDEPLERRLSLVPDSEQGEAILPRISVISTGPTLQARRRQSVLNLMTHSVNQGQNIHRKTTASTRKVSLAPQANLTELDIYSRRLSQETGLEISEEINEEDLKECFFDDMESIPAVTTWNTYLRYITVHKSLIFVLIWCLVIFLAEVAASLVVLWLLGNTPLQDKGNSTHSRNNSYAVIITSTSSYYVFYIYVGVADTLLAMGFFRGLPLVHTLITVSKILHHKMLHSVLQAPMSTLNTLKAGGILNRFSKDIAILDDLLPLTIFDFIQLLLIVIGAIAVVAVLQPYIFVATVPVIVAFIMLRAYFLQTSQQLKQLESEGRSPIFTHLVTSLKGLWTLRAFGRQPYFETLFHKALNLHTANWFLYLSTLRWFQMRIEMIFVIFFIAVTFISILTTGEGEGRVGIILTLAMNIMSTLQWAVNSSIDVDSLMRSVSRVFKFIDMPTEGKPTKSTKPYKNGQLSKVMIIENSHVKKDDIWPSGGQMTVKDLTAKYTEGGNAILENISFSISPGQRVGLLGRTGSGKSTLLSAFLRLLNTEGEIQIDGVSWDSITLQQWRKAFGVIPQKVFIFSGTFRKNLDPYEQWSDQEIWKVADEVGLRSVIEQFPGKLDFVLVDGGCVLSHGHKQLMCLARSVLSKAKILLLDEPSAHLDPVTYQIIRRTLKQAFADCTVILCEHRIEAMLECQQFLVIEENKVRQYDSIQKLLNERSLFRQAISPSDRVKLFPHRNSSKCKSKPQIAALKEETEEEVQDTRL

SMILES: O=C(O)c1cccc(-c2noc(-c3ccccc3F)n2)c1 [Ataluren]
- safety, oral availability and tolerability [1]: safe, orally available and well tolerated

SMILES: N#CS [SCN^−, thiocyanate]
- protection against MPO activity [2]: virtually fully protected
- protection against MPO activity ([3]; 100 μM SCN^−): virtually fully protected
- protection against MPO activity ([3]; 400 μM SCN^−): virtually fully protected
- protection against MPO activity [4]: virtually fully protected
- inhibition of MPO-catalyzed production of OCl^− ([5]; 10 μM SCN^−): inhibited only slightly, if at all
- inhibition of MPO-catalyzed production of OCl^− ([5]; 50 μM SCN^−): partially inhibited
- production of OSCN^− and OCl^− with increasing SCN^− concentration [5]: boosted the production of OSCN^− but depressed that of OCl^−
- inhibition of MPO-catalyzed production of OCl^− ([5]; 100-400 μM SCN^−): inhibited almost completely
- protection against H2O2 cell injury ([6]; 100 μM): Neither SCN^− (100 or 400 μM), nor LPO (1 U/ml) alone provided any significant protection
- protection against H2O2 cell injury ([6]; 400 μM): Neither SCN^− (100 or 400 μM), nor LPO (1 U/ml) alone provided any significant protection
- CF mice survived beyond 90 days ([7]; 1 mM thiocyanate in drinking water (mothers before weaning, pups after weaning)): 10 of the 15
- body length of CF mice [7, 12]: normalizes
- body weight of CF mice [7, 12]: normalizes
- survival of CF mice ([7]; oral thiocyanate, 1 mM in drinking water): prolongs the survival
- protection for CF piglets ([8]; given to pig mothers during pregnancy and to piglets after birth, up to 20 mg/kg daily, with or without iodine): improved protection
- effect on meconium in CF piglets [8, 13]: loosening meconium
- survival of CF piglets [8, 13]: does not survive them
- second-order rate constant of oxidation by OCl^− to OSCN^− [9]: 2.3e+07 M⁻¹ s⁻¹

SMILES: CC(C)(C)c1cc(C(C)(C)C)c(NC(=O)c2c[nH]c3ccccc3c2=O)cc1O [VX-770]
- biological measures of CFTR function (nasal potential difference and sweat chloride) [10]: improvements
- clinical measures of pulmonary health (FEV1) [10]: improvements

SMILES: CC(C)Cc1ccc(C(C)C(=O)O)cc1 (stereo not shown) [ibuprofen]
- CF disease progression [11]: slow disease progression
